Results taken from patent US11026877B2, “Cosmetic compositions for bleaching the skin” (Henkel AG & Co. KGaA, priority 2014, dated 2021).

Tests used:
Type in all cases: cell-based, human
Design in all cases: key: + stands for increased expression; − for reduced expression; 0 for no change
Conditions in all cases: topical, 24 hours, 30 μL, in water with 3% by weight PEG-40 Hydrogenated Castor Oil; in comparison with the blank control
Tyrosinase = assay: Gene expression by quantitative real-time PCR in reconstructed melanocyte models type VI (Skinethic): Tyr
Description: (§1) The effect of licorice extract (oil-soluble) and ascorbyl tetraisopalmitate on the expression of melanogenesis-relevant genes was studied in reconstructed melanocyte models type VI from the company Skinethic. In this case, human keratinocytes were cultured together with type VI melanocytes, so that a very dark skin model forms. Together the cells form a three-dimensional epithelial tissue. Three models each were treated topically for 24 hours with 30 μL of the test formulations. In this case, the formulation is first applied to the model and then carefully distributed with a brush. Incubation then occurs at 37° C. with 5% CO2. Untreated models and models treated with a blank control (3% PEG-40 Hydrogenated Castor Oil in water) were run concurrently as the control. The gene expressions of the melanocyte-specific markers were studied using quantitative real-time PCR. […] In the subsequent PCR reaction, which is carried out with the aid of gene-specific primers for the particular markers and is used for the amplification of the target gene segments, the formation of the PCR products is detected online via a fluorescence signal. The fluorescence signal in this case is proportional to the amount of the formed PCR product. The greater the expression of a specific gene, the greater the amount of the formed PCR product and the greater the fluorescence signal. […]

ckit = assay: Gene expression by quantitative real-time PCR in reconstructed melanocyte models type VI (Skinethic): ckit
Description: as §1

gp100 = assay: Gene expression by quantitative real-time PCR in reconstructed melanocyte models type VI (Skinethic): gp100
Description: as §1

TRP2 = assay: Gene expression by quantitative real-time PCR in reconstructed melanocyte models type VI (Skinethic): TRP2
Description: as §1

TRP1 = assay: Gene expression by quantitative real-time PCR in reconstructed melanocyte models type VI (Skinethic): TRP1
Description: as §1

SMILES: CCCCCCCCC(CCCCCC)C(=O)OC[C@H](OC(=O)C(CCCCCC)CCCCCCCC)[C@H]1OC(=O)C(OC(=O)C(CCCCCC)CCCCCCCC)=C1OC(=O)C(CCCCCC)CCCCCCCC (some centres unmarked) [0.05% Vitamin tetraisopalmitate, ascorbyl tetraisopalmitate]
- Tyr gene expression (Tyrosinase): +
- ckit gene expression (ckit): 0
- Gp100 gene expression (gp100): −
- TRP2 gene expression (TRP2): +
- TRP1 gene expression (TRP1): −
